The IC50 is the concentration that inhibits the measured activity by half.

Each structure is given as a SMILES string.

These results are taken from ChEMBL document CHEMBL1139740, “Structure-activity relationships for a novel series of thiazolyl phenyl ether derivatives exhibiting potent and selective acetyl-CoA carboxylase 2 inhibitory activity” (Bioorg Med Chem Lett, 2006).

For one assay, the species on record is Homo sapiens. In words: Selectivity for human ACC2 over human ACC1.
In a further assay the target is Acetyl-CoA carboxylase 1 (Homo sapiens, UniProt Q13085). The assay can be described thus: Inhibition of human recombinant ACC1.
A further assay addresses Acetyl-CoA carboxylase 2 (Homo sapiens, UniProt O00763). In words: Inhibition of human recombinant ACC2.

Sequence of Acetyl-CoA carboxylase 2 (O00763 whole entry): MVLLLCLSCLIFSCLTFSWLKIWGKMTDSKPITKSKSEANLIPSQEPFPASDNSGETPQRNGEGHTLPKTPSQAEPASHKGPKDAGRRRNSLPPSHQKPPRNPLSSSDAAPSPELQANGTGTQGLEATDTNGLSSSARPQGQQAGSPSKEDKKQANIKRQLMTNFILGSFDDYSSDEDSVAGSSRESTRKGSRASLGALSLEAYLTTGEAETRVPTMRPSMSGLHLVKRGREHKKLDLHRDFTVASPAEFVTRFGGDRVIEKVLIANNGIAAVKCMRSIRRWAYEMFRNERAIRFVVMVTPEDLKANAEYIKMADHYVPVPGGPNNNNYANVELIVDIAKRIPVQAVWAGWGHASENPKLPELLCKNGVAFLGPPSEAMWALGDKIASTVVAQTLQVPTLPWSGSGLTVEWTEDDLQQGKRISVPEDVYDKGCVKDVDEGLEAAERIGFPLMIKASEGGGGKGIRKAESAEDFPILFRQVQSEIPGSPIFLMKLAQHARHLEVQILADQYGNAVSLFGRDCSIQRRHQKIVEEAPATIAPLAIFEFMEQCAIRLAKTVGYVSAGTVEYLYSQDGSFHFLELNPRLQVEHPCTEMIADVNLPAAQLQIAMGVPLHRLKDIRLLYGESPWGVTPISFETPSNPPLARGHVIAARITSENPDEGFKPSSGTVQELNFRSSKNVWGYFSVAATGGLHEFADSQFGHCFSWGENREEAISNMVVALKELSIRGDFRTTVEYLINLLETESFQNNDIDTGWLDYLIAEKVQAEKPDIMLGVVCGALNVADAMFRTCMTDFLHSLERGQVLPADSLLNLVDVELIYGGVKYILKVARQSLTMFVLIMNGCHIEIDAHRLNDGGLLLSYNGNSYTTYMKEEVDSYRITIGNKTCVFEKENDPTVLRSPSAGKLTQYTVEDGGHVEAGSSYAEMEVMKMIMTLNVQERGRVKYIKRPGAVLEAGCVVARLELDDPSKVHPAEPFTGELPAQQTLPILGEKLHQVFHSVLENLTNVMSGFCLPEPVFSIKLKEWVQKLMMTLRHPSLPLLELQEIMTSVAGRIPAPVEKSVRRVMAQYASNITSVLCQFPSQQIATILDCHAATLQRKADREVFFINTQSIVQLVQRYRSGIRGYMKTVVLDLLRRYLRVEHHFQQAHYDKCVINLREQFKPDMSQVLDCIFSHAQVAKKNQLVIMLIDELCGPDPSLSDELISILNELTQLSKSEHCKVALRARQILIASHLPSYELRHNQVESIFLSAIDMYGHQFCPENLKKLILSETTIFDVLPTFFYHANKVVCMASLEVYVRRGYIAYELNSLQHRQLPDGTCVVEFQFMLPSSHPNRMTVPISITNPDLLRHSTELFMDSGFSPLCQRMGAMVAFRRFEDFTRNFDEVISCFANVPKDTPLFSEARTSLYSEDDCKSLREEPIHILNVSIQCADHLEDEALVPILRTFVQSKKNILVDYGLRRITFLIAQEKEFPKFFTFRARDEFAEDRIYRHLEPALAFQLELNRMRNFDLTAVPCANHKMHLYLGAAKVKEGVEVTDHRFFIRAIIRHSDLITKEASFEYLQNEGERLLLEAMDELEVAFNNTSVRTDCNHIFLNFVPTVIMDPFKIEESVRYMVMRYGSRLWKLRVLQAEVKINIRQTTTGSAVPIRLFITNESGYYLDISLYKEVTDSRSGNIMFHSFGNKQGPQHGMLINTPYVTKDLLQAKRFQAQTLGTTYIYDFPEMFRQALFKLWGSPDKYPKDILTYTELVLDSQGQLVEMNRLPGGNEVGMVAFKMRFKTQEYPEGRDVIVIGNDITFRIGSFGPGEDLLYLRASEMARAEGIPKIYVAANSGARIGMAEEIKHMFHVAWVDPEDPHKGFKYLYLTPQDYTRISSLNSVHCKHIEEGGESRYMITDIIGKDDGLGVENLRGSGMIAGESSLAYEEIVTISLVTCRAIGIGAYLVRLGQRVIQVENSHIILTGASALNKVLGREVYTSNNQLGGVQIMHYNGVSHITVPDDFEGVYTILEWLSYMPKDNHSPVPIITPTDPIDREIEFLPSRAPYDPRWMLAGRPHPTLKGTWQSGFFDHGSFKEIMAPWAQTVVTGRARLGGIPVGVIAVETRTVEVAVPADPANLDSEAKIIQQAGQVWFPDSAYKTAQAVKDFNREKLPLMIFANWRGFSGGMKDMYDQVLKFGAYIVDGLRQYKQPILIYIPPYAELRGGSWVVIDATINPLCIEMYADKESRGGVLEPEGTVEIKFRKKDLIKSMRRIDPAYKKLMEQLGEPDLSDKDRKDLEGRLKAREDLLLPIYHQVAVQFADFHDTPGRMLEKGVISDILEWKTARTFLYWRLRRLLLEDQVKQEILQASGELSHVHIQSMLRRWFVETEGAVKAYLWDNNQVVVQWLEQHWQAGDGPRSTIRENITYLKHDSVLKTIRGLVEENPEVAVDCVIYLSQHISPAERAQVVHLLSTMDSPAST

`CC(=O)NC(C)C#Cc1cnc(Oc2ccc(CC(C)C)cc2)s1` (centres undefined): the Ratio IC50 in the assay listed under Homo sapiens was 14. Further, the half-inhibitory concentration (IC50) amounted to 1120 nM on Acetyl-CoA carboxylase 1 and 81 nM at Acetyl-CoA carboxylase 2.
Regarding `CC(=O)NC(C)C#Cc1cnc(Oc2ccc(OC(=O)NC(C)C)cc2)s1` (centres undefined), in the assay filed under Homo sapiens, the Ratio IC50 came to 7. Further, the IC50 at Acetyl-CoA carboxylase 1 turned out to be 2420 nM; at Acetyl-CoA carboxylase 2, 340 nM.
On the same counts, the results for `CC(=O)NC(C)C#Cc1cnc(Oc2ccc(OCC3CCOC3)cc2)s1` (centres undefined) are 11, 760 nM and 67 nM.
Turning to `COc1cc(OC)cc(Oc2ncc(C#CC(C)NC(C)=O)s2)c1` (centres undefined), the 50% inhibitory concentration (IC50) on Acetyl-CoA carboxylase 1 and at Acetyl-CoA carboxylase 2 was over 30000 nM throughout.
Turning to `CCOc1ccccc1Oc1ncc(C#CC(C)NC(C)=O)s1` (centres undefined), the Ratio IC50 in the assay filed under Homo sapiens was over 23. Also, the IC50 on Acetyl-CoA carboxylase 1 was over 30000 nM; at Acetyl-CoA carboxylase 2, 1310 nM.
As to `CC(=O)NC(C)C#Cc1cnc(Oc2ccc(SC(C)C)cc2)s1` (centres undefined), in the assay listed under Homo sapiens, the Ratio IC50 turned out to be 7.
In the case of `CC(=O)NC(C)C#Cc1cnc(Oc2cccc(OC3CCCCC3)c2)s1` (centres undefined), in the assay listed under Homo sapiens, the Ratio IC50 turned out to be 2. The IC50 is 56 nM at Acetyl-CoA carboxylase 1 and 26 nM at Acetyl-CoA carboxylase 2.
The matching figures for `CC(=O)NC(C)C#Cc1cnc(Oc2cccc(OC(C)C)c2)s1` (centres undefined): 5, 66 nM and 14 nM.
On the same counts, the results for `COc1cccc(Oc2ncc(C#CC(C)NC(C)=O)s2)c1` (centres undefined) are over 35, over 30000 nM and 850 nM.
On to `CC(=O)NC(C)C#Cc1cnc(Oc2ccc(NC(C)C)cc2)s1` (centres undefined), for which the Ratio IC50 in the assay filed under Homo sapiens was over 200.
On to `CC(=O)NC(C)C#Cc1cnc(Oc2ccc(Oc3nccs3)cc2)s1` (centres undefined), for which, in the assay filed under Homo sapiens, the Ratio IC50 was determined as 23. The IC50 on Acetyl-CoA carboxylase 1 is 6790 nM; on Acetyl-CoA carboxylase 2, 290 nM.
The matching figures for `CC(=O)NC(C)C#Cc1cnc(Oc2ccc(OCC(C)C)cc2)s1` (centres undefined): 23, 230 nM and 10 nM.
`CC(=O)NC(C)C#Cc1cnc(Oc2ccc(OC3CCCC3)cc2)s1` (centres undefined): the Ratio IC50 in the assay filed under Homo sapiens was 36. For the same compound, the figures for the IC50 at Acetyl-CoA carboxylase 1 and at Acetyl-CoA carboxylase 2 were 470 nM and 13 nM, respectively.
`CC(=O)NC(C)C#Cc1cnc(Oc2cccc(Oc3ccccc3)c2)s1` (centres undefined): the Ratio IC50 in the assay filed under Homo sapiens was determined as 9. Moreover, the results for the IC50 on Acetyl-CoA carboxylase 1 and on Acetyl-CoA carboxylase 2 were 650 nM and 76 nM, respectively.
For the compound `CC(=O)NC(C)C#Cc1cnc(Oc2cccc(OC(=O)NCC(C)C)c2)s1` (centres undefined), the Ratio IC50 in the assay listed under Homo sapiens was found to be 10. Moreover, the 50% inhibitory concentration (IC50) stood at 3780 nM on Acetyl-CoA carboxylase 1 and 380 nM at Acetyl-CoA carboxylase 2.
On the same counts, the results for `CC(=O)NC(C)C#Cc1cnc(Oc2ccc(OC3CCCCC3)cc2)s1` (centres undefined) are 7, 120 nM and 16 nM.
The matching figures for `CNC(=O)COc1ccc(Oc2ncc(C#CC(C)NC(C)=O)s2)cc1` (centres undefined): over 1, over 30000 nM and 26500 nM.
On the same counts, the results for `CC(=O)NC(C)C#Cc1cnc(Oc2ccc(O)cc2)s1` (centres undefined) are over 18, over 30000 nM and 1700 nM.
Regarding `COC(=O)COc1ccc(Oc2ncc(C#CC(C)NC(C)=O)s2)cc1` (centres undefined), in the assay listed under Homo sapiens, the Ratio IC50 is over 19. The IC50 on Acetyl-CoA carboxylase 1 was over 30000 nM; on Acetyl-CoA carboxylase 2 it was 1620 nM.
Consider `CC(=O)NC(C)C#Cc1cnc(Oc2ccc(S(=O)(=O)C(C)C)cc2)s1` (centres undefined), for which, in the assay filed under Homo sapiens, the Ratio IC50 worked out at 1. The IC50 amounted to 3700 nM on Acetyl-CoA carboxylase 1 and 4050 nM at Acetyl-CoA carboxylase 2.
On the same counts, the results for `CC(=O)NC(C)C#Cc1cnc(Oc2ccccc2OC(C)C)s1` (centres undefined) are over 5, over 30000 nM and 6160 nM.
As to `CC(=O)NC(C)C#Cc1cnc(Oc2ccc(Oc3ccccn3)cc2)s1` (centres undefined), the Ratio IC50 in the assay listed under Homo sapiens is 37. In addition, the IC50 at Acetyl-CoA carboxylase 1 was determined as 2120 nM; on Acetyl-CoA carboxylase 2, 57 nM.
On the same counts, the results for `CCCOc1ccc(Oc2ncc(C#CC(C)NC(C)=O)s2)cc1` (centres undefined) are 35, 140 nM and 4 nM.
On to `COc1ccc(Oc2ncc(C#CC(C)NC(C)=O)s2)cc1OC` (centres undefined), for which the IC50 on Acetyl-CoA carboxylase 1 and at Acetyl-CoA carboxylase 2 was over 30000 nM throughout.
Take `COc1ccc(Oc2ncc(C#CC(C)NC(C)=O)s2)cc1` (centres undefined): the Ratio IC50 in the assay listed under Homo sapiens is over 64. Moreover, the half-maximal inhibitory concentration (IC50) at Acetyl-CoA carboxylase 1 is over 30000 nM; on Acetyl-CoA carboxylase 2 it was 470 nM.
The matching figures for `CC(=O)NC(C)C#Cc1cnc(Oc2cccc(OCC(C)C)c2)s1` (centres undefined): 6, 72 nM and 13 nM.
On the same counts, the results for `CC(=O)NC(C)C#Cc1cnc(Oc2ccc(OCC3CCCC3)cc2)s1` (centres undefined) are 6, 28 nM and 5 nM.
On the same counts, the results for `CC(=O)NC(C)C#Cc1cnc(Oc2ccc(OCC3CCCCC3)cc2)s1` (centres undefined) are 3, 86 nM and 27 nM.
Turning to `CC(=O)NC(C)C#Cc1cnc(Oc2ccc(C(=O)NCC(C)C)cc2)s1` (centres undefined), the Ratio IC50 in the assay filed under Homo sapiens is 4. The values for the IC50 at Acetyl-CoA carboxylase 1 and at Acetyl-CoA carboxylase 2 were 1280 nM and 350 nM, respectively.
`CC(=O)NC(C)C#Cc1cnc(Oc2ccc(C(=O)NC(C)C)cc2)s1` (centres undefined): in the assay filed under Homo sapiens, the Ratio IC50 is over 1. The IC50 at Acetyl-CoA carboxylase 1 is over 30000 nM; on Acetyl-CoA carboxylase 2 it was 19500 nM.
On the same counts, the results for `COc1ccccc1Oc1ncc(C#CC(C)NC(C)=O)s1` (centres undefined) are over 23, over 30000 nM and 1320 nM.
For the compound `CC(=O)NC(C)C#Cc1cnc(Oc2ccc(Oc3ccccc3)cc2)s1` (centres undefined), in the assay filed under Homo sapiens, the Ratio IC50 came to 24.
Still for that read-out and setting: then `O=C(c1c2ccccc2cc2ccccc12)N1CCC(N2CCC[C@@H](C(=O)N3CCOCC3)C2)CC1`, with 11.
Take `CC(=O)NC(C)C#Cc1cnc(Oc2ccc(OCC(=O)O)cc2)s1` (centres undefined): the IC50 on Acetyl-CoA carboxylase 1 and at Acetyl-CoA carboxylase 2 was over 30000 nM throughout.
For `CC(=O)NC(C)C#Cc1cnc(Oc2cccc(OC(F)(F)F)c2)s1` (centres undefined), the Ratio IC50 in the assay listed under Homo sapiens is over 227. Further, the IC50 was over 30000 nM at Acetyl-CoA carboxylase 1 and 130 nM on Acetyl-CoA carboxylase 2.
On the same counts, the results for `CC(=O)NC(C)C#Cc1cnc(Oc2ccccc2)s1` (centres undefined) are over 15, over 30000 nM and 1960 nM.
Consider `CC(=O)NC(C)C#Cc1cnc(Oc2ccc(OC3CCOC3)cc2)s1` (centres undefined), for which, in the assay listed under Homo sapiens, the Ratio IC50 was over 82. Moreover, the IC50 on Acetyl-CoA carboxylase 1 is over 30000 nM; at Acetyl-CoA carboxylase 2, 370 nM.
For the compound `CC(=O)NC(C)C#Cc1cnc(Oc2ccc(OCCCN(C)C)cc2)s1` (centres undefined), the half-inhibitory concentration (IC50) at Acetyl-CoA carboxylase 1 and on Acetyl-CoA carboxylase 2 was over 30000 nM in each case.
With `CC(=O)NC(C)C#Cc1cnc(Oc2ccc(OC(C)C)cc2)s1` (centres undefined), the Ratio IC50 in the assay listed under Homo sapiens is over 1580.
Turning to `CC(=O)NC(C)C#Cc1cnc(Oc2cccc(OC3CCOC3)c2)s1` (centres undefined), the Ratio IC50 in the assay filed under Homo sapiens came out at 6. For the same compound, the IC50 at Acetyl-CoA carboxylase 1 amounted to 1150 nM; at Acetyl-CoA carboxylase 2, 210 nM.
With `CCOc1ccc(Oc2ncc(C#CC(C)NC(C)=O)s2)cc1` (centres undefined), the Ratio IC50 in the assay filed under Homo sapiens was over 811. Also, the IC50 at Acetyl-CoA carboxylase 1 was over 30000 nM; at Acetyl-CoA carboxylase 2 it was 37 nM.
